Assay type in all cases: cell-based, human
Data set [1] relates to VCaP cells. In words: AR and ERG ChIP-qPCR in VCaP cells after DHT stimulation. Particulars: 100 nM DHT. How it is done:
(§1) FIG. 1. Androgen stimulates distinct expression and chromatin binding profiles for AR and ERG in prostate cancer cells. Time course expression analysis of AR and ERG (A) mRNA and (B) protein levels in VCaP cells after stimulation with 10 nM DHT at various time points. Error bars represent S.E.M of at least 3 independent repeats. (C) Androgen stimulates AR and ERG binding to chromatin. Hormone depleted VCaP cells were treated with 100 nM DHT for 0, 2, or 18 hrs. Cells were cross-linked with formaldehyde and chromatin was immunoprecipitated with antibodies against AR or ERG. Immunoprecipitated DNA was quantified with qPCR for specific binding sites and a randomly selected genomic location as control (ctrl) region. Error bars represent S.E.M of at least 3 independent experiments.
(§2) ChIP assay was performed as described previously (47). Briefly, VCaP cells were fixed with 1% formaldehyde (Sigma-Aldrich) for 10 minutes prior to harvesting. Next, the cells were resuspended in SDS lysis buffer containing protease inhibitors. The lysed cells were then sonicated shearing the chromatin into 500-1000 base pairs in length. After pre-clearing with rabbit IgG (Santa Cruz Biotechnology) for 2 hours, the chromatin was immunoprecipitation overnight with the corresponding antibodies and Sepharose beads A (Zymed). After washing the beads, the captured DNA was eluted and de-crosslinked at 65° C. overnight prior to purification with QIAquick spin PCR purification kit (Qiagen). Real-time quantitative Polymerase Chain Reaction (qPCR) was carried out using the KAPA SYBR FAST qPCR kit (Kapa Biosystems).
All ChIP-qPCR primer sequences can be found in FIG. 8. […] Specifically, cells were first fixed with 2 mM DSG (Pierce) for 45 minutes prior to formaldehyde fixation. Antibodies that were used for ChIP analysis include anti-AR (sc-815x), anti-ERG (sc-353), anti-HDAC3 (sc-11417) from Santa Cruz Biotechnology, anti-HDAC1 (ab7028-50), anti-HDAC2 (ab7029-50) from Abcam, and anti-EZH2 (39933) from Active Motif.

The subject of data set [2] is VCaP cells. As to the kind of experiment: HDAC1, HDAC2, HDAC3 and EZH2 ChIP-qPCR in VCaP cells before and after DHT treatment. Particulars: 100 nM DHT, 2 hrs. As for the experimental part: FIG. 4. HDACs and EZH2 are recruited to AR binding sites. […] (B) Androgen-depleted VCaP cells were treated with either EtOH or 100 nM DHT for 2 hrs. The cells were then double crosslinked with DSG followed by formaldehyde. […] Error bars represent S.E.M of at least 3 independent experiments.
as §2
All ChIP-qPCR primer sequences can be found in FIG. 8. […] Specifically, cells were first fixed with 2 mM DSG (Pierce) for 45 minutes prior to formaldehyde fixation. […]
On the technique in general: Real-time PCR tracks product formation cycle by cycle.

Data set [3] deals with VCaP cells. As to the kind of experiment: Time course expression analysis of AR and ERG mRNA and protein in VCaP cells after DHT stimulation. The conditions noted are these: 10 nM DHT. As for the experimental part: as §1
The human prostate cancer cell line, VCaP (American Type Culture Collection), was maintained in DMEM supplemented with 10% fetal bovine serum (FBS), sodium pyruvate, sodium bicarbonate, and penicillin/streptomycin at 37° C. under 5% CO2. Unless otherwise stated, for experiments requiring DHT (Tokyo Chemical Industry) treatment, VCaP cells were grown for 24 hours prior to stimulation in phenol red free DMEM supplemented with 10% charcoal-dextran stripped fetal bovine serum (CDFBS), sodium pyruvate, sodium bicarbonate, and penicillin/streptomycin.
Cells were harvested and total RNA was collected in TRI-reagent (Sigma) and purified with PureLink™ RNA Mini Kit (Invitrogen). Reverse transcription of RNA to cDNA was carried out using M-MLV reverse transcriptase (Promega). RNA expression levels were measured using quantitative PCR and normalized to GAPDH. The primers for cDNA quantification can be found in FIG. 9.
The antibodies used for western blot analysis include anti-AR (sc-816), anti ERG (sc-354), anti-Vinculin (sc-25336) from Santa Cruz, anti-AR (AR441) from Labvision, anti-HDAC1 (#05-100), anti-HDAC2 (#05-814) from Millipore, anti-HDAC3 (#3949) and anti-EZH2 (#3147) from Cell Signaling Technology.

For a further data set, the system named is EZH2. As to the kind of experiment: Transcript levels of PSA and FKBP5 in VCaP cells after blocking EZH2 with DZNep (RT-qPCR). Particulars: 3 μM DZNep, 24 or 48 hrs. How it is done: (§3) FIG. 6. Co-recruitment of ERG, HDACs, and EZH2 to ARBS attenuates AR-dependent transcription. […] (C) VCaP cells grown in full serum (top) or depleted with hormones and treated with 10 nM DHT (bottom) were subjected to varying concentrations of TSA for 24 hours. Total RNA from the treated cells were then harvested and converted to cDNA before quantifying for gene expression levels by qPCR. GAPDH was used as an internal normalization control. Error bars represent S.E.M of at least 3 independent experiments. (D) VCaP cells grown in full serum (top) or depleted with hormone and treated with 10 nM DHT to 8 hours (bottom) were subjected to 3 μM DZNep treatment for 24 (top) or 48 (bottom) hrs. Total RNA was extracted and processed as described in FIG. 6C. Error bars represent S.E.M of at least 3 independent experiments.
(§4) The human prostate cancer cell line, VCaP (American Type Culture Collection), was maintained in DMEM supplemented with 10% fetal bovine serum (FBS), sodium pyruvate, sodium bicarbonate, and penicillin/streptomycin at 37° C. under 5% CO2. […]
(§5) Cells were harvested and total RNA was collected in TRI-reagent (Sigma) and purified with PureLink™ RNA Mini Kit (Invitrogen). […] RNA expression levels were measured using quantitative PCR and normalized to GAPDH. The primers for cDNA quantification can be found in FIG. 9. […]

The next data set deals with HDACs. As to the kind of experiment: Transcript levels of PSA and FKBP5 in VCaP cells after blocking HDACs with TSA (RT-qPCR). Particulars: 24 hours. How it is done: as §3, §4, §5
The test system of data set [4] is VCaP cells. In words: Flow cytometry of siRNA transfected VCaP cells (subG1 cell death, BrdU proliferation). Particulars: silencing of VCL. As for the experimental part: (§6) FIG. 7. ERG, HDACs, and EZH2 promote cell invasiveness and inhibit epithelial differentiation by antagonizing AR-dependent transcription of cell adhesion molecules. […] Oncomine Molecular Concept Map analysis was performed to compare ERG-associated (5 kb from TSS) androgen induced genes (>2 fold) that were identified in our study against clinical prostate cancer gene signatures available in the Oncomine database. The criteria for significant associations between node is defined as OD>=2; p-value <le-4. (B) Boxplot showing the relative mRNA expression of VCL in clinical prostate samples from the Yu et al (49) study, which has been deposited in the Oncomine database. […] (G) The effect of AR and ERG silencing on VCL gene expression was analyzed as described in FIG. 3D-E. Error bars represent S.E.M of at least 3 independent experiments. (H) The effect of TSA on the androgen-dependent gene regulation of VCL was analyzed as described in FIG. 6C. […] (I) The effect of DZNep on the androgen-dependent gene regulation of VCL was analyzed as described in FIG. 6D. […] The number of cells per high power field (HPF) that passed through the transwell was counted. […] (K) The effect of VCL suppression on cancer cell survival was assessed by flow cytometry. siRNA transfected cells were fixed prior staining with propidium iodide for flow analysis. […]
For orientation: Flow cytometry measures light scatter and fluorescence of single cells or particles in a stream.

Data set [5] deals with VCaP cells. In words: Matrigel invasion assay with siRNA-treated VCaP cells. The conditions noted are these: silencing of VCL, 48 hrs. As for the experimental part:
as §6

This is an account of results in patent publication US20140107176A1, “METHOD OF MODULATING A PROSTATE CANCER CELL” (Agency for Science, Technology and Research, priority 2012, published 2014).

For `C[C@]12CCC(=O)C[C@@H]1CC[C@@H]1[C@@H]2CC[C@]2(C)[C@@H](O)CC[C@@H]12` [DHT], in the data set on VCaP cells [1] (2 hrs), the “AR binding to the enhancer AR binding site (ARBS) of PSA” value is “recruited strongly”; the “ERG recruitment to the ARBS of PSA and the ERGBS associated with PLA1A” value was “recruited”. In addition, in the data set on VCaP cells [1] (18 hrs), the “AR binding to the enhancer AR binding site (ARBS) of PSA” value is given as “reduced significantly”; the “ERG recruitment to the ARBS of PSA and the ERGBS associated with PLA1A” value is “further enhanced”. Moreover, the “recruitment of HDAC1, HDAC2, HDAC3 and EZH2 to AR and ERG co-localized binding sites” value in the data set on VCaP cells [2] was “in most cases enhanced”. In addition, in the data set on VCaP cells [3], the “mRNA and protein levels of ERG” value is listed as “up-regulated”; the “time of peak ERG RNA level” value worked out at 6 h; the “time of peak ERG protein level” value turned out to be 12 h. Besides, in the data set with VCaP cells [3] (across time), the AR protein level result was “remained relatively constant” and the “level of AR mRNA” value is listed as “repressed”.
For `Nc1nccc2c1ncn2[C@@H]1C=C(CO)[C@@H](O)[C@H]1O` [DZNep, 3-deazaneplanocin A], the “expression of PSA and FKBP5” value in the data set with EZH2 is recorded as “enhanced”.
On to `CC(/C=C/C(=O)NO)=C\[C@@H](C)C(=O)c1ccc(N(C)C)cc1` [TSA, Trichostatin A], for which the “PSA and FKBP5 transcript levels” value with HDACs (high concentrations of TSA) was “repressive”; with HDACs (low concentrations of TSA), “enhanced”.
As to “siVCL: siRNA against VCL synthesized from 1stBase, rCrUrGrGrCrUrUrGrCrArGrArUrCrCrArArArUrUrU [SEQ ID NO.: 5] (CUGGCUUGCAGAUCCAAAUUU; RNA, backbone not given here)”, in the data set on VCaP cells [4], the “cell death (subG1 phase)” value is “not due to differences” and the “cell proliferation (S phase, BrdU)” value is reported as “not due to differences”. Also, the “invasiveness of VCaP cells” value in the data set with VCaP cells [5] is given as “increased”.
